From US10442775B2, “Preparation method for eutectic hydrate crystal form II of AHU-377 and diovan trisodium salt” (CRYSTAL PHARMATECH CO., LTD., priority 2015, dated 2019)

Test: Crystal form stability on storage (no transformation to other forms)
Assay type: physicochemical
Details: 40° C./75% RH; samples packaged in inner double-layered LDPE bags and an outer aluminum foil composite film bag

Crystalline form stability (transformation to other forms): will not transform to other forms
Substance: trisodium AHU-377 and Valsartan co-crystal hydrate Form II
